# According to US20250375450A1, “SMARCA2/4 INHIBITION AS A STRATEGY TO TREAT TUMORS THAT HARBOR ABERRANT BAF ASSEMBLIES” (BOARD OF REGENTS, THE UNIVERSITY OF TEXAS SYSTEM, priority 2022, published 2025):
# Experiments:
# [1] = biological target: SMARCAL1 (Homo sapiens, UniProt Q9NZC9); experiment: Activity of other SWI/SNF ATPases not part of the BAF complex; type: biochemical; conditions: SWI/SNF ATPase not part of the BAF complex
# [2] = tested on: ES3 cells; experiment: Live imaging of ES3 cells; type: cell-based
# Protocol: In vivo live imaging of ES3 cells in the presence of AT-301 (IC50˜5 μM).
# Briefly, human SMARCA2 was purified, and a high-throughput screen (HTS) of 40,000 compounds was conducted. […] In brief, cells were grown in RPMI media supplemented with 10% Fetal bovine serum (FBS), 1× penicillin, and streptomycin antibiotics. Cells were placed in an incubator with 5% C02 and 50% humidity. When cells reached 90% confluency, cells were harvested, washed twice in 1×PBS, counted using trypan blue exclusion method. Then cells were seeded in 96-well plates (duplicates, n=2) at the density of 20,000 cells per well. Allowed them to attach to the bottom of the well for 1 to 2 hrs and treated with different concentration of AT-301 compound starting at highest concentration of 10 micromolar to serial dilution of the compound to the lowest concentration of 0.039 micromolar. Cells treated with only DMSO were also included as negative control. Cells were monitored for 72 hrs. by live cell imaging method (Incucyte S3) taking images every two hours. The confluency was determined and plotted against time (hours) by using Prism software.
# [3] = tested on: ES3 (Ewing's sarcoma) cells; experiment: Apoptosis, IncuCyte Caspase-3/7 green reagent; type: cell-based
# Protocol: (§1) Referring to FIG. 11A and FIG. 11B, RH4 (FIG. 11A) and ES3 (FIG. 11B) cells were treated with the indicated concentrations of BAF-X-1 or DMSO in triplicate and apoptosis was detected using the IncuCyte Caspase 3/7 green dye (Sartorius). Brightfield and green fluorescence images were captured every 2 hours from 4 fields per well on the IncuCyte live cell imager. The proportion of caspase positive (green) cells relative to % confluence of the well was calculated on the IncuCyte software and plotted against time. Referring to FIG. 11C and FIG. 11D, RH41 cells were treated with 7.5 μM AT-301 (FIG. 11D) or DMSO (FIG. 11C) for 24 hours, harvested with accutase, washed, and fixed in 70% ethanol. They were subsequently stained with propidium iodide/RNase and fluorescence was analyzed on BD flow cytometer. Resulting data was analyzed using FlowJo software.
# (§2) The medium was then replaced with fresh medium containing dilutions of the compound (AT-301) or DMSO (as a negative control), and 1× IncuCyte Caspase-3/7 green reagent (Sartorius) and proliferation/apoptosis was measured on IncuCyte live-cell imaging system. The treated cells were imaged every (2/4) hours and four fields from each well were imaged for analysis.
# [4] = tested on: RH41 (rhabdomyosarcoma) cells; experiment: Apoptosis, IncuCyte Caspase-3/7 green reagent; type: cell-based
# Protocol: as §1, §2
# [5] = tested on: BAF complex in ES3 cells; experiment: BAF complex assembly, size-exclusion chromatography of nuclear lysates and immunoblot; type: cell-based; conditions: 7.5 μM AT-301
# Description: (§3) FIG. 12A-D show representative data illustrating that the assembly of BAF complex is perturbed by AT-301 inhibitor without perturbing oncogenic fusion protein levels. Referring to FIG. 12A and FIG. 12B, immunoblots of RH41 (FIG. 12A) and ES7 (FIG. 12B) cells after 4 and 12 hrs of treatment with AT-301 or DMSO. FOXO1 and FLI1 expression remains unchanged upon AT-301 treatment. Referring to FIG. 12C and FIG. 12D, gel filtration chromatography of ES3 (FIG. 12C) and RH41 (FIG. 12D) cell nuclear lysates after BAF-X-1 treatment are shown. Lysates were passed through a Sephacryl S-400 HR column and every fourth fraction was immuno-blotted for the proteins indicated with fraction numbers above the lanes.
# (§4) Next, whether AT-301 can perturb the assembly of BAF complex was evaluated using size-exclusion chromatography (SEC) method. Cells were cultured on 15 cm petri-dishes. Nuclei were extracted and lysed. A HiPrep 16/60 Sephacryl S-400 HR column (GE) was equilibrated with a running buffer and 4 mg of the lysate was loaded on to the column. Fractions of 1 mL were eluted at an elution rate of 0.8 mL/min. Eluted proteins were analyzed by concentrating and immunoblotting every fourth fraction.
# [6] = tested on: BAF complex in RH4 cells; experiment: as above; type: cell-based; conditions: 7.5 μM AT-301
# Description: as §3, §4
# [7] = biological target: T1, SMARCA2 (Homo sapiens, UniProt P51531); experiment: Secondary ATPase assay; type: biochemical
# T1 construct: The SMARCA2-1 gene (amino acids 437-1493) encompassing all domains; made in house; host or cells: expiSF9 insect cells (baculovirus, pFASTBac1)
# Protocol: Exemplary compounds were evaluated for their ability to inhibit human SMARCA2 in ATPase assays as detailed in Table 2 below. Dose response curves for compound nos.
# T1 sequence (P51531 437-1493): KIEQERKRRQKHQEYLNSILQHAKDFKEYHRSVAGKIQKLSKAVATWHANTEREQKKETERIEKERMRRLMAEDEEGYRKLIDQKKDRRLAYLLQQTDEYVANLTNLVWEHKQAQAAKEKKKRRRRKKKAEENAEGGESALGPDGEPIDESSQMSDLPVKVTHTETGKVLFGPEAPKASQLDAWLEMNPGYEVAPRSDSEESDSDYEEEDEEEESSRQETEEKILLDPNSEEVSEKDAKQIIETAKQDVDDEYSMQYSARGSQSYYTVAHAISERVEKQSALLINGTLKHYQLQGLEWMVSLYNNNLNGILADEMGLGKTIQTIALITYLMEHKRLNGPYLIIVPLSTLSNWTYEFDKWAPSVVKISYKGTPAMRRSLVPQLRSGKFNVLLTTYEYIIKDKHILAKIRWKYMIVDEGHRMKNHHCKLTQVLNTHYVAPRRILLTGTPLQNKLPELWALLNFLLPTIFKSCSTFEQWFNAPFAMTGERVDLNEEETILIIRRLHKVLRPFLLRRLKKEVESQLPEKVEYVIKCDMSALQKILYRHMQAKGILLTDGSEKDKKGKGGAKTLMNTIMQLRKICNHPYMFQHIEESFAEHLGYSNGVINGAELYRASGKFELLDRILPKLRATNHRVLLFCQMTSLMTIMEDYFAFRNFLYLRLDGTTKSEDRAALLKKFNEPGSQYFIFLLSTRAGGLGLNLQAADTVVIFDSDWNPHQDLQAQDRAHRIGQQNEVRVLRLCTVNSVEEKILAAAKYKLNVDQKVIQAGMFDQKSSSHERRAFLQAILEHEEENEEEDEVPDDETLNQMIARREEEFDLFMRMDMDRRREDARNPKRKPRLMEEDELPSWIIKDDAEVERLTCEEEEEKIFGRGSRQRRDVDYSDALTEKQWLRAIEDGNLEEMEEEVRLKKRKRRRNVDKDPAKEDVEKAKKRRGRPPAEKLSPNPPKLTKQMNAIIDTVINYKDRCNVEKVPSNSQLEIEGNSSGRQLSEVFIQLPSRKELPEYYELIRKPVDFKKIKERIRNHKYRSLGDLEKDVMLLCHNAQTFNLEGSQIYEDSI
# SMARCAL1, sequence (Q9NZC9 whole entry): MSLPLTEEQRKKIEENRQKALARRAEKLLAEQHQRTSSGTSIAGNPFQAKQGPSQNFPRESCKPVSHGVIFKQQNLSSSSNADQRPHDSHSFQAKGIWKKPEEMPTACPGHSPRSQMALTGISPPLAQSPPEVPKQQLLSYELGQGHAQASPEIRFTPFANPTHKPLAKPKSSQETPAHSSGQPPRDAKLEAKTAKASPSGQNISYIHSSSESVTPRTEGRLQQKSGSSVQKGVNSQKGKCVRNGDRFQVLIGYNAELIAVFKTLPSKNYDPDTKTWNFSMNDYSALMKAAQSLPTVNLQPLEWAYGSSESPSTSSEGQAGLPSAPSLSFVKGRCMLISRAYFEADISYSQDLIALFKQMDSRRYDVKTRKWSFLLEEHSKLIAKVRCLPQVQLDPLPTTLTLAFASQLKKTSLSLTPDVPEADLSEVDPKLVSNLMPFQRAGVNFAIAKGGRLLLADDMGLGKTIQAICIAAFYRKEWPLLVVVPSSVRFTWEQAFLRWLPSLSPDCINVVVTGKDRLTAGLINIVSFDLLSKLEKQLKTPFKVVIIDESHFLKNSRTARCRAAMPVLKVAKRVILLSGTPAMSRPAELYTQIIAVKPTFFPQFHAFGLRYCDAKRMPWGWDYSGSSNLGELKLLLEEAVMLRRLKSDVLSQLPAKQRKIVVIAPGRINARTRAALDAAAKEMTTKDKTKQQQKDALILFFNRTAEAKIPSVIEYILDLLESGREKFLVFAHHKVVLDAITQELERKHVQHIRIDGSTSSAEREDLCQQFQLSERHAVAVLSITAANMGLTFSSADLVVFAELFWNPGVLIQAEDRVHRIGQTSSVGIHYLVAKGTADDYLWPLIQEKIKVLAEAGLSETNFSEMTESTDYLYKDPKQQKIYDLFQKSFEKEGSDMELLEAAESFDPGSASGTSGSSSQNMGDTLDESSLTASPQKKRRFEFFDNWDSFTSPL
structure (smiles),measurement,setting,value
"Clc1ccc(CNc2nc(NC3CCCC3)nc3ccccc23)cc1Cl [AT-301, N^2-cyclopentyl-N^4-(3,4-dichlorobenzyl)quinazoline-2,4-diamine]",Inhibition of activity of SMARCAL1,[1],fails to inhibit
same,IC50,[2],~5 µM
same,Apoptosis (caspase 3/7),[3],induces apoptosis
same,Apoptosis (caspase 3/7),[4],induces apoptosis
same,Assembly of BAF complexes,[5],perturbed assembly
same,Assembly of BAF complexes,[6],perturbed assembly
same,IC50,[7],~5 µM
